Where no end group is shown, it is not given here.
What was measured:
[1] = system: human dermal lymphatic microvascular endothelial cells (HLEC); assay: HLEC MTT proliferation assay; type: cell-based; settings: control PI=1, 3 to 4 days, MTT, mean ± s.e.m., n=4
Procedure: (§1) First, HMVEC and HLEC were seeded at 5 × 10^3 cells/well in EBM-2 + 1% FCS in a 96-well plate, whereas MDA-MB-231 were starved of growth factors overnight by replacing their growth medium with DMEM (serum-free) prior to seeding the tumor cells at 15 × 10^2 cells/well in DMEM + 1% FCS. As for the rest of the assay, the same protocol applies to all cells. Once adherent, cells were incubated with different concentrations of the peptides CXCL4^47–70 and CXCL4L1^47–70 as single stimuli or in combination with recombinant human EGF (3 ng/ml; R&D Systems, Minneapolis, MN) at 37°C/5% CO2. All conditions were tested in triplicate or quadruplicate. After 3 to 4 days, stimulation medium was removed and a sterile MTT solution was added [0.04 g/100 ml thiazolyl blue (Sigma-Aldrich, St. Louis, MO) in 20% PBS/80% RPMI without phenol red (Lonza)] for 3 to 4 hours. The formed formasan crystals were dissolved by replacing the MTT solution with acidic propanol (0.04 M HCl, 0.1% (v/v) Nondet P-40 in absolute isopropanol) and shaking the plate, shielded from light, for 10 minutes. Optical density (OD) was determined at 570 nm and 630 nm. The obtained ODs were processed to proliferation indexes (PI), expressed relative to appropriate buffer controls, i.e. ΔOD570–630X over ΔOD570–630CO.

CHO/CXCR3A cells = assay: CXCR3A binding (flow cytometry); settings: NH2-terminally biotinylated peptides, 3 to 3000 ng/ml, data not shown
Source text: (§2) We further tried to reveal the mode of action of CXCL4^47–70 and CXCL4L1^47–70. First, we excluded that either peptide still binds/activates one of the CXCR3 isoforms, the receptors for intact CXCL4 and CXCL4L1.

CHO/CXCR3B cells = assay: CXCR3B binding (flow cytometry); settings: NH2-terminally biotinylated peptides, 3 to 3000 ng/ml, data not shown
Source text: as §2

[2] = system: human acute monocytic leukemia cells (THP-1); assay: Transendothelial multiscreen chemotaxis assay; type: cell-based; settings: HMVEC monolayer, n=3 to 4; for effect on CCL5-induced transendothelial migration: peptide 1000 to 5000 ng/ml + CCL5 20 ng/ml, 3 to 5 hours, 37°C, ATPlite
Procedure: Monocyte chemotaxis assays were performed on 5 μm hydrophilic polycarbonate multiscreen-MIC plates (Millipore) using the human acute monocytic leukemia cells (THP-1). To promote efficient synergy between CCL5 on one hand and CXCL4, CXCL4^47–70 or CXCL4L1^47–70 on the other hand, the upper compartment of these plates was coated with a HMVEC monolayer. HMVEC were seeded on a 0.1% gelatin layer 24 hours prior to the chemotaxis assay. The following day, dilutions of recombinant human CCL5 (PeproTech, Rocky Hill, CT), natural human CXCL4 (isolated from stimulated platelets as previously described), recombinant human CXCL4L1 (isolated from baculovirus-infected Sf9 cells as previously described), synthetic CXCL4^47–70, synthetic CXCL4L1^47–70 (both produced as described above), or combinations thereof were added to the lower compartment of the plate, in a volume of 150 μl. After removal of the HMVEC medium, 0.35 × 10^6 THP-1 cells were added to the upper wells, resuspended in phenol red-free RPMI + 0.1 g/100 ml BSA (endotoxin-free BSA; Sigma CatN° A8806) after centrifugation of the cells at 200g for 10 min. Plates were incubated at 37°C for 3 to 5 hours before quantifying the amount of cells that migrated towards the chemokine concentrations. For that purpose, we used the ATPlite kit (PerkinElmer, Waltham, MA) allowing quantitative luminescent detection of ATP, which is representative of THP-1 cell counts in the lower wells. This reaction was performed in a view white 96-well plate (PerkinElmer). A chemotactic index (CI) was calculated, defined as the ratio of luminescence after chemokine treatment and luminescence after control treatment.

MDA-MB-231 cells = assay: MDA-MB-231 MTT proliferation assay; type: cell-based, human; settings: control PI=1, DMEM + 1% FCS, 3 to 4 days, mean ± s.e.m.
Procedure: as §1

EGF = EGF binding (heterodimerization) assay in 96-well plates; set-up: species or system human; settings: amino-terminally biotinylated peptides; 37 °C; 2 μg/ml EGF coated; OD450; n=3
Procedure: GAG, EGF and CCL5 binding were quantified in 96-well plates following a similar protocol. GAG binding was evaluated by immobilizing low molecular weight heparin (Iduron, Manchester, UK) on EpranEx plates (BD Biosciences), whereas EGF as well as CCL5 recombinant human protein (R&D Systems and PeproTech, respectively) was immobilized on high protein-binding ELISA plates (Corning life sciences, Tewksbury, MA). In brief, 25 μg/ml GAG [diluted in assay buffer 100 mM NaCl, 50 mM NaAc, pH 7.2, and 0.2% (v/v) Tween-20], 2 μg/ml EGF or 50 ng/ml CCL5 (both diluted in PBS), was coated overnight at room temperature on 96-well plates. Plates were washed three times with either assay buffer or 0.5% (v/v) Tween 20 in PBS and blocked at 37°C with buffer enriched with either 0.2% (w/v) gelatin (heparin binding assay) or 0.1% (w/v) casein (EGF or CCL5 binding assay). Subsequently, a dilution curve of biotinylated CXCL4L1^47–70 and CXCL4^47–70 peptide was pipetted on the plate and incubated at 37 °C to allow interaction with heparin, EGF or CCL5. After washing, retained biotinylated peptide was detected by peroxidase-conjugated streptavidin. Peroxidase activity was quantified by measuring the conversion of 3,3′,5,5′-tetramethylbenzidine (Sigma-Aldrich) at 450 nm.

[3] = peptide 0.3 μg/ml, p=0.030 (CXCL4^47–70), p=0.312 (CXCL4L1^47–70)
[4] = peptide 3 μg/ml, n=7 in triplicate, p<0.001
[5] = peptide 10 μg/ml, in triplicate, n=3, p<0.001 (CXCL4^47–70), n=7, p=0.01 (CXCL4L1^47–70)

Substance	Proliferation index (PI), baseline [1, 3]	Proliferation index (PI), baseline ([1]; peptide 1 μg/ml, p=0.030)	Proliferation index (PI), baseline ([1]; peptide 3 μg/ml, p=0.030)	specific binding to CHO/CXCR3A (CHO/CXCR3A cells)	specific binding to CHO/CXCR3B (CHO/CXCR3B cells)	effect on CCL5-induced transendothelial migration [2]	Proliferation index (PI) (MDA-MB-231 cells; [4])	Proliferation index (PI) (MDA-MB-231 cells; [5])	Proliferation index (PI) (MDA-MB-231 cells; peptide 30 μg/ml, n=3 in triplicate, p<0.001)	binding to EGF-coated plate (EGF)	stimulation of monocytic cell chemotaxis compared to CXCL4L1^47–70 ([2]; peptide 1000 to 5000 ng/ml with CCL5 20 ng/ml)	Proliferation index (PI) (MDA-MB-231 cells; peptide 0.3 μg/ml, n=7 in triplicate, p=0.023)
CXCL4L1^47–70: synthetic human carboxy-terminal peptide restricted to the last 24 amino acids of CXCL4L1, Fmoc chemistry	0.90 ± 0.05	0.82 ± 0.05	0.66 ± 0.04	could not detect specific binding	could not detect specific binding	enhanced transendothelial migration of monocytic cells	0.78 ± 0.04	0.76 ± 0.08	0.26 ± 0.04	equally well in a dose-dependent manner	–	–
CXCL4^47–70: synthetic human carboxy-terminal peptide restricted to the last 24 amino acids of CXCL4, Fmoc chemistry (NGRKICLDLQAPLYKKIIKKLLES; not fully specified (N-terminus))	0.70 ± 0.06	0.69 ± 0.06	0.37 ± 0.04	could not detect specific binding	could not detect specific binding	enhanced transendothelial migration of monocytic cells	0.66 ± 0.04	0.21 ± 0.05	–	equally well in a dose-dependent manner	more efficiently stimulated monocytic cell chemotaxis compared to CXCL4L1^47–70	0.87 ± 0.04
